“Also recorded” adds a separate entry of the source.
Key:
HER2 = molecular target: T1, HER2 (Homo sapiens, UniProt P04626); test: Follow-up KdELECT binding, HER2
T1 construct: purchased Eurofins DiscoverX (contract assay, KINOMEScan KdELECT)
Description: In vitro kinase activity (inhibitor binding constants (Kd) and biochemical inhibition (IC50's)) were assessed by Eurofins DiscoverX (Kd determinations) and Eurofins Cerep (biochemical IC50 determinations).

[1] = tested on: Ba/F3 EGFR-del E746_A750/C797S cells; test: CellTiter-Glo viability assay, Ba/F3 EGFR-del E746_A750/C797S; type: cell-based; conditions: Mus musculus, BaF3, osimertinib-resistant, 72 h, read-out: antiproliferative IC50
Description: The A431, HCC827, SK-BR-3, ZR-75-30, AU565 and Caco-2 cell lines were obtained from ATCC. The NCI-H1975 cell line was obtained from SIBS. The NCI-H3255 cell line was obtained from CoBioer. Engineered Ba/F3 cell lines were obtained from Crown Bioscience. MCKII-MDR1 cells were obtained from the Netherlands Cancer Institute. HEK293 cells were obtained from Invitrogen. A431 cells were cultured in DMEM (Life Technologies) with 10% FBS. HCC827, NCI-H1975 and AU565 cells were cultured in RPMI1640 (Invitrogen) with 10% FBS. NCI-H3255 cells were cultured in BEGM (Lonza) with 10% FBS. Ba/F3 EGFR-del E746_A750/C797S and Ba/F3 EGFR-L858R/C797S cells were cultured in RPMI (Invitrogen) with 10% FBS. SK-BR-3 cells were cultured in McCoy's 5a (Invitrogen) with 10% FBS. ZR-75-30 cells were cultured in RPMI1640 (Invitrogen) with 20% FBS. BT474 cells were cultured in DMEM (Gibco) with 10% FBS and 10 μg/mL Insulin. Caco-2 and MCKII-MDR1 culture information is given in the permeability studies section. […]
Viability assays using A431, HCC827, NCI-H1975, NCI-H3255, Ba/F3 EGFR-del E746_A750/C797S, Ba/F3 EGFR-L858R/C797S, AU565, SK-BR-3 and ZR-75-30 cells were performed at Crown BioScience. […] Dose-response curves were generated and used to calculate the IC50 values which were calculated on GraphPad Prism from the non-linear regression equation fitted with a sigmoidal dose response and are presented as the mean±SEM.

[2] = tested on: Chinese hamster ovary (CHO-K1) cells; test: In vitro micronucleus test; type: cell-based; conditions: for concentration to which negative micronucleus result is valid: cytotoxicity above
Description: Compound 15 was assessed for genotoxicity by Eurofins Panlabs. using the in vitro micronucleus test in Chinese hamster ovary (CHO-K1) cells as previously described.^22 Compound 15 was incubated in a 96-well plate format at varying concentrations (8, 16, 31, 62, 125, 250, 500 and 1000 μM) for 4 h at 37° C. with metabolic activation by rat liver S9 and 24 h at 37° C. without metabolic activation by rat liver S9. High content analysis and fluorescence imaging were used to detect micronuclei and compared against positive controls (cyclophosphamide (ran at 7.2 μM) and mitomycin C (ran at 0.3 μM)). Significances of the positive counts between the treatment and control were determined by one-tailed t-test with two sample equal variance.

[3] = Oral CNS pharmacokinetics in SD rats; type: in vivo; conditions: male, rat, brain and plasma, single oral dose 20 mg/kg, read-out: Kp,uu (unbound brain-to-unbound plasma partitioning coefficient) (AUCinf)
Description: Animal experiments were performed at Pharmaron Inc. and animal use was approved by Pharmaron's Institutional Animal Care and Use Committee (IACUC) in Pharmaron (Pharmaron IACUC, Protocol #PK-M-07182022, #PK-R-06012022 and #ON-CELL-XEN-06012022) following the guidance of AAALAC. Six- to eight-week-old male SD rats (approximately 200-300 g) obtained from Si Bei Fu Laboratory Animal Technology Co., six- to eight-week-old male CD1 mice (approximately 20-30 g) obtained from Si Bei Fu Laboratory Animal Technology Co., and six- to eight-week-old female BALB/c nude mice (approximately 20-30 g) obtained from Si Bei Fu Laboratory Animal Technology Co., were used in the pharmacokinetic studies. Six- to eight-week-old female BALB/c nude mice (approximately 18-22 g) obtained from Beijing Anikeeper Biotech Co., Ltd were used in the intracranial PDX study. […]
Oral CNS pharmacokinetic assessment of 15 was done by oral gavage (formulation: 1% methylcellulose) followed by blood and brain sampling at 7 time points (0.25, 0.5, 1, 2, 4, 8, 24 h post dose) with n=3 animals per time point (n=21 total). […] Concentrations of 15 in the plasma and brain samples were determined using LC-MS/MS and WinNonlin 8.3 (Phoenix™) was used for pharmacokinetic calculations. […]

T1 sequence (P04626 23-1255): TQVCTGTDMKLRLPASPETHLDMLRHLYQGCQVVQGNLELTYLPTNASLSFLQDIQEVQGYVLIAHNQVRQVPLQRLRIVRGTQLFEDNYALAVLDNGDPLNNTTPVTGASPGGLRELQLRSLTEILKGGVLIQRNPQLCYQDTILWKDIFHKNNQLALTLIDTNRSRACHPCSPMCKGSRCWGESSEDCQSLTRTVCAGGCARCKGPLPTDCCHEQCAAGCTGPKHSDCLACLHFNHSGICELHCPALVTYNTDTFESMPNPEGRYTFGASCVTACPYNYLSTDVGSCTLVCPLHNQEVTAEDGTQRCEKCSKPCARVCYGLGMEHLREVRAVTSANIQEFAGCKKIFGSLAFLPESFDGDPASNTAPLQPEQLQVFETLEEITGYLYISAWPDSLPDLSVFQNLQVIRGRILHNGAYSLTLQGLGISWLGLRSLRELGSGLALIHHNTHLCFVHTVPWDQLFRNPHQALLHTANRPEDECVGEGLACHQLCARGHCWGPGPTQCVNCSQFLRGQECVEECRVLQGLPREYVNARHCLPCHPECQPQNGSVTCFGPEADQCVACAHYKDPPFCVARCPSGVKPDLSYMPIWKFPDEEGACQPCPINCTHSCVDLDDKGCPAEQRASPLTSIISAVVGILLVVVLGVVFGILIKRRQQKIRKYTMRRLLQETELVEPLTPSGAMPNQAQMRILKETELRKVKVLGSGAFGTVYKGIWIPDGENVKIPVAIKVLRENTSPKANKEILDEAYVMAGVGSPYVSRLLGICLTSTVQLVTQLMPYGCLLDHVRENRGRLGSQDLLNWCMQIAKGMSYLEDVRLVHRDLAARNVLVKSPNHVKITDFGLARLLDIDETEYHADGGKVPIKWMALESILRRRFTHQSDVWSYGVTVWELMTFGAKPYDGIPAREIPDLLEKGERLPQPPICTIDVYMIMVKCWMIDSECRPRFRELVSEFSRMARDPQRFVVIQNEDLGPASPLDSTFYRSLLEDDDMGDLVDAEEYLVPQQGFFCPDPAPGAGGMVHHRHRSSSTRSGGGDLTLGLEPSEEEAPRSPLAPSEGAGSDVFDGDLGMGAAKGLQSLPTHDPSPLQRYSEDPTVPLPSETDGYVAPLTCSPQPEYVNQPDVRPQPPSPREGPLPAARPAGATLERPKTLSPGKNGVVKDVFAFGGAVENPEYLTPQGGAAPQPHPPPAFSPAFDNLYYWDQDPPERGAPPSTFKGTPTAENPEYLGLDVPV

Which Kd (HER2) does the source give for `COc1cc2ncnc(Nc3cccc(Cl)c3F)c2cc1OCCON1CCN(C)CC1` [Compound 15, N-(3-chloro-2-fluorophenyl)-7-methoxy-6-(2-((4-methylpiperazin-1-yl)oxy)ethoxy)quinazolin-4-amine] here?
Its Kd is 0.021 µM.

What about the IC50 [1] of the same compound?
The IC50 was 0.0025 µM.

And the “concentration to which negative micronucleus result is valid” value ([2]; +rat liver S9)?
The value was ≤ 31 µM.

And the “genotoxicity in in vitro micronucleus test” value ([2]; CHO-K1, with and without rat liver S9)?
Its value is “negative; also recorded: neither mutagenic nor genotoxic potential”.

And the “concentration to which negative micronucleus result is valid” value ([2]; −rat liver S9)?
Its value is ≤ 8 µM.

What about the Kp,uu (unbound brain-to-unbound plasma partition coefficient) [3] of the same compound?
Its Kp,uu (unbound brain-to-unbound plasma partition coefficient) is 0.33.

From patent publication US20250236596A1, “HYDROXYLAMINE-BASED EGFR INHIBITORS FOR TREATMENT OF CANCER WITH BRAIN METASTASES” (University of Georgia Research Foundation, Inc., priority 2022, published 2025)
